Data taken from ChEMBL document CHEMBL4818987, “Recent advances of podophyllotoxin/epipodophyllotoxin hybrids in anticancer activity, mode of action, and structure-activity relationship: An update (2010-2020)” (Eur J Med Chem, 2020).

Assays:
B16 = assay: Antiproliferative activity against […] cells incubated for 48 to 72 hrs by MTT assay; format: functional, cell-based; conditions: Mus musculus
NCI-H1993 = assay: Antiproliferative activity against human NCI-H1993 cells incubated for 48 to 72 hrs by MTT assay; format: functional, cell-based
MKN-45 [1] = assay: Antiproliferative activity against human MKN-45 cells incubated for 48 to 72 hrs by MTT assay; format: functional, cell-based
HepG2 [2] = assay: Antiproliferative activity against human HepG2 cells incubated for 48 to 72 hrs by MTT assay; format: functional, cell-based
K562 [3] = assay: Antiproliferative activity against human K562 cells incubated for 72 hrs by CCK8 assay; format: functional, cell-based; conditions: K562, 72 h
MKN-45 [4] = assay: Antiproliferative activity against human MKN-45 cells incubated for 72 hrs by MTT assay; format: functional, cell-based; conditions: time 72 hrs
HeLa [5] = assay: Antiproliferative activity against human HeLa cells incubated for 48 hrs by MTT assay; format: functional, cell-based
K562 [6] = assay: Antiproliferative activity against human K562 cells incubated for 48 hrs by MTT assay; format: functional, cell-based; conditions: K562, 48 h
A549 [7] = assay: Antiproliferative activity against human A549 cells incubated for 48 hrs by MTT assay; format: functional, cell-based; conditions: A549, 48 h
MCF7 [8] = assay: Antiproliferative activity against human MCF7 cells incubated for 48 hrs by MTT assay; format: functional, cell-based; conditions: MCF7, 48 h
HepG2 [9] = assay: Antiproliferative activity against human HepG2 cells incubated for 48 hrs by MTT assay; format: functional, cell-based; conditions: HepG2, 48 h
SK-OV-3 [10] = assay: Antiproliferative activity against human SKOV3 cells incubated for 48 hrs by MTT assay; format: functional, cell-based; conditions: SK-OV-3, 48 h
BGC-823 [11] = assay: Antiproliferative activity against human BGC-823 cells incubated for 48 hrs by MTT assay; format: functional, cell-based; conditions: BGC-823, 48 h
MGC-803 [12] = assay: Antiproliferative activity against human MGC-803 cells incubated for 48 hrs by MTT assay; format: functional, cell-based; conditions: MGC-803, 48 h
K562 [13] = assay: Antiproliferative activity against human K562 cells incubated for 72 hrs by CCK8 method; format: functional, cell-based; conditions: K562, 72 h
SW480 = assay: Antiproliferative activity against human SW480 cells incubated for 48 hrs by MTT assay; format: functional, cell-based; conditions: SW480, 48 h
SMMC-7721 = assay: Antiproliferative activity against human SMMC-7721 cells incubated for 48 hrs by MTT assay; format: functional, cell-based; conditions: SMMC-7721, 48 h
HL-60 = assay: Antiproliferative activity against human HL-60 cells incubated for 48 hrs by MTT assay; format: functional, cell-based; conditions: HL-60, 48 h
HeLa [14] = assay: Antiproliferative activity against human HeLa cells by MTT assay; format: functional, cell-based
K562/A02 [15] = assay: Antiproliferative activity against human K562/A02 cells by MTT assay; format: functional, cell-based
K562 [16] = assay: Antiproliferative activity against human K562 cells by MTT assay; format: functional, cell-based
K562 [17] = assay: Cytotoxicity against human K562 cells by SRB assay; format: functional, cell-based
K562/A02 [18] = assay: Cytotoxicity against human K562/A02 cells by SRB assay; format: functional, cell-based
HOS = assay: Cytotoxicity against human HOS cells by MTT assay; format: functional
LoVo = assay: Cytotoxicity against human LoVo cells by MTT assay; format: functional, cell-based
MCF7 [19] = assay: Cytotoxicity against human MCF7 cells by MTT assay; format: functional, cell-based
HeLa [20] = assay: Cytotoxicity against human HeLa cells by MTT assay; format: functional, cell-based
KB [21] = assay: Cytotoxicity against human KB cells by MTT assay; format: functional, cell-based
[22] = Cytotoxicity against human KBv200 cells by MTT assay; format: functional, cell-based; conditions: KBv200, Uterine cervix
K562/Adr = assay: Antiproliferative activity against human K562/ADR cells incubated for 72 hrs by CCK8 assay; format: functional, cell-based
BGC-823 [23] = assay: Antiproliferative activity against human BGC-823 cells incubated for 72 hrs by MTT assay; format: functional, cell-based; conditions: BGC-823, 72 h
KB [24] = assay: Cytotoxicity against human KB cells incubated for 72 hrs by SRB method; format: functional, cell-based
KB [25] = assay: Cytotoxicity against human Vincristine-resistant KB cells incubated for 72 hrs by SRB method; format: functional, cell-based
[26] = Mean initial plasma concentration in Sprague-Dawley rat at 2.5 mg/kg, iv measured after 5 to 1440 mins by LC-MS/MS analysis; format: ADME, organism-based; conditions: Rattus norvegicus
[27] = AUCinfinity in Sprague-Dawley rat at 2.5 mg/kg, iv measured after 5 to 1440 mins by LC-MS/MS analysis; format: ADME, organism-based; parameters: route intravenous, dose 2.5 mg/kg, time upper 1440 min, time lower 5 min; conditions: in vivo, time 5-1440 min, dose 2.5 mg/kg
[28] = Plasma clearance in Sprague-Dawley rat at 2.5 mg/kg, iv measured after 5 to 1440 mins by LC-MS/MS analysis; format: ADME, organism-based; parameters: dose 2.5 mg/kg, time upper 1440 min, time lower 5 min; conditions: 2.5 mg/kg
HCT-116 [29] = assay: Antiproliferative activity against human HCT116 cells incubated for 3 days by MTT assay; format: functional, cell-based; conditions: HCT-116, 72 h
A549 [30] = assay: Antiproliferative activity against human A549 cells incubated for 3 days by MTT assay; format: functional, cell-based; conditions: A549, 72 h
[31] = target: Prostaglandin G/H synthase 2 (Mus musculus, UniProt Q05769); assay: Inhibition of mouse COX2
Sequence of Prostaglandin G/H synthase 2 (Mus musculus, UniProt Q05769) (Q05769 whole entry): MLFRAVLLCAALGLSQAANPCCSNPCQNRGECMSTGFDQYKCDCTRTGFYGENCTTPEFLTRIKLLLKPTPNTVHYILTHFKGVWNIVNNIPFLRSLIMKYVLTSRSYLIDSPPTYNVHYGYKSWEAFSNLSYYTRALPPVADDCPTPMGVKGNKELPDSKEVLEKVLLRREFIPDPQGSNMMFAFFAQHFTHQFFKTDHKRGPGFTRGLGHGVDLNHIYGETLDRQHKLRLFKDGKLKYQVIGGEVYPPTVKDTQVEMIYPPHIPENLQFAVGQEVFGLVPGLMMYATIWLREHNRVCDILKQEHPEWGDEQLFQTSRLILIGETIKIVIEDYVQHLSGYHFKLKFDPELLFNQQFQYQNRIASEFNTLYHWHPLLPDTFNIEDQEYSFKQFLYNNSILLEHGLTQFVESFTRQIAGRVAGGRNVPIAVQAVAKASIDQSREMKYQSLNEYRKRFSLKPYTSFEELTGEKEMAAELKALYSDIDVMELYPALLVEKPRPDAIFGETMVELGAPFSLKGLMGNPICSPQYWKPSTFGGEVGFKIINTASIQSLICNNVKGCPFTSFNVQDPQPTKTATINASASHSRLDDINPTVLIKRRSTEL

[32] = target: Prostaglandin G/H synthase 2 (Mus musculus, UniProt Q05769, V509I); assay: Inhibition of mouse COX2 V523I mutant
Sequence of Prostaglandin G/H synthase 2 (Mus musculus, UniProt Q05769, V509I) (Q05769 18-604 V509I limits assumed): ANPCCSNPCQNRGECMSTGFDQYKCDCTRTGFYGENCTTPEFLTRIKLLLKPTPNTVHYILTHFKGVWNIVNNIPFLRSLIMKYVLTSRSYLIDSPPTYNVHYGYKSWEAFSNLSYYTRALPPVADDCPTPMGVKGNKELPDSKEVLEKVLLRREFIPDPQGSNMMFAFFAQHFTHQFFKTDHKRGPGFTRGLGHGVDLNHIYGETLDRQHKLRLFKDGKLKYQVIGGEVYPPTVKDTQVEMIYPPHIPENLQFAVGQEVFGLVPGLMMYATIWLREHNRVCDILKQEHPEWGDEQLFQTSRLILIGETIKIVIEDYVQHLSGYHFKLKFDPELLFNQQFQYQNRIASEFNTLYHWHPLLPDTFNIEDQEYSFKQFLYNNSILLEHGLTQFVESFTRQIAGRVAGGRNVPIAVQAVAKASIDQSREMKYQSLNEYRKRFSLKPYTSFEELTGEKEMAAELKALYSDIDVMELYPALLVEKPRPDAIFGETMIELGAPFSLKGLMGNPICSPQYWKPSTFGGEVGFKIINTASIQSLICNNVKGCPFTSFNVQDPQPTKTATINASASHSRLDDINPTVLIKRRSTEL

[33] = target: Prostaglandin G/H synthase 2 (Mus musculus, UniProt Q05769, S516A); assay: Inhibition of mouse COX2 S530A mutant
Sequence of Prostaglandin G/H synthase 2 (Mus musculus, UniProt Q05769, S516A) (Q05769 18-604 S516A limits assumed): as the sequence (Q05769 18-604 V509I limits assumed) above, with I492V, S499A counted along it

[34] = target: Prostaglandin G/H synthase 2 (Mus musculus, UniProt Q05769, R106Q); assay: Inhibition of mouse COX2 R120Q mutant
Sequence of Prostaglandin G/H synthase 2 (Mus musculus, UniProt Q05769, R106Q) (Q05769 18-604 R106Q limits assumed): as the sequence (Q05769 18-604 V509I limits assumed) above, with R89Q, I492V counted along it

RKO = assay: Antiproliferative activity against human RKO cells incubated for 48 hrs by CCK8 assay; format: functional, cell-based
HCT-116 [35] = assay: Antiproliferative activity against human HCT116 cells incubated for 48 hrs by CCK8 assay; format: functional, cell-based; conditions: HCT-116, 48 h
MDA-MB-231 = assay: Antiproliferative activity against human MDA-MB-231 cells incubated for 48 hrs by CCK8 assay; format: functional, cell-based; conditions: MDA-MB-231, 48 h
[36] = Antiproliferative activity against human HCA7 cells incubated for 48 hrs by CCK8 assay; format: functional, cell-based; conditions: HCA-7, 48 h
IMR-5 = assay: Antiproliferative activity against human IMR5 cells incubated for 48 hrs by CCK8 assay; format: functional, cell-based; conditions: IMR-5, 48 h
NCI-H292 = assay: Antiproliferative activity against human NCI-H292 cells incubated for 48 hrs by CCK8 assay; format: functional, cell-based; conditions: NCI-H292, 48 h
RAW264.7 = assay: Antiproliferative activity against mouse RAW264.7 cells incubated for 48 hrs by CCK8 assay; format: functional, cell-based; conditions: RAW264.7, 48 h
[37] = Antitumor activity against human HNSCC-1483 cells xenografted in mouse assessed as reduction in tumor growth at 2 mg/kg administered for 14 days and measured on day 2 to day 15 by electronic caliper method relative to control; format: functional; conditions: MDA-1483, 336 h, time 14 day, read-out: TGI
CCRF S-180 = assay: Antitumor activity against mouse S180 cells implanted in ICR mouse assessed as reduction in tumor weight at 20 mg/kg, ip administered everyday for 7 days relative to control; format: functional; parameters: scale not given: the % may be the effect or the level left; conditions: time 7 day
[38] = Cytotoxicity against human MUM-2B cells incubated for 72 hrs by CCK8 assay; format: functional, cell-based
[39] = Cytotoxicity against human C918 cells incubated for 72 hrs by CCK8 assay; format: functional, cell-based; conditions: C918, 72 h
[40] = Potency index, ratio of etoposide IC50 to test compound IC50 for antiproliferative activity against human MUM-2B cells; format: functional
[41] = Potency index, ratio of etoposide IC50 to test compound IC50 for antiproliferative activity against human C918 cells; format: functional
HeLa [42] = assay: Potency index, ratio of etoposide IC50 to test compound IC50 for antiproliferative activity against human HeLa cells; format: functional
A549 [43] = assay: Potency index, ratio of etoposide IC50 to test compound IC50 for antiproliferative activity against human A549 cells; format: functional
MCF7 [44] = assay: Potency index, ratio of etoposide IC50 to test compound IC50 for antiproliferative activity against human MCF7 cells; format: functional
HepG2 [45] = assay: Potency index, ratio of etoposide IC50 to test compound IC50 for antiproliferative activity against human HepG2 cells; format: functional
SK-OV-3 [46] = assay: Potency index, ratio of etoposide IC50 to test compound IC50 for antiproliferative activity against human SK-OV-3 cells; format: functional
BGC-823 [47] = assay: Potency index, ratio of etoposide IC50 to test compound IC50 for antiproliferative activity against human BGC-823 cells; format: functional
MGC-803 [48] = assay: Potency index, ratio of etoposide IC50 to test compound IC50 for antiproliferative activity against human MGC-803 cells; format: functional
K562 [49] = assay: Potency index, ratio of etoposide IC50 to test compound IC50 for antiproliferative activity against human K562 cells; format: functional
K562/A02 [50] = assay: Potency index, ratio of etoposide IC50 to test compound IC50 for antiproliferative activity against human K562/A02 cells; format: functional

## COc1cc([C@@H]2c3cc4c(cc3[C@@H](O[C@@H]3O[C@@H]5CO[C@@H](C)O[C@H]5[C@H](O)[C@H]3O)[C@H]3COC(=O)[C@H]23)OCO4)cc(OC)c1O [ETOPOSIDE]
B16
  IC50: > 910 nM
NCI-H1993
  IC50: > 910 nM
MKN-45 [1]
  IC50: > 910 nM
HepG2 [2]
  IC50: > 910 nM
K562 [3]
  IC50: 3390 nM
MKN-45 [4]
  Activity: 12.8%
HeLa [5]
  IC50: 8120 nM
K562 [6]
  IC50: 183 nM
A549 [7]
  IC50: 1060 nM
MCF7 [8]
  IC50: 310 nM
HepG2 [9]
  IC50: 310 nM
SK-OV-3 [10]
  IC50: 14800 nM
BGC-823 [11]
  IC50: 1060 nM
MGC-803 [12]
  IC50: 1060 nM
K562 [13]
  IC50: 1060 nM
SW480
  IC50: 764 nM
SMMC-7721
  IC50: 310 nM
HL-60
  IC50: 310 nM
HeLa [14]
  IC50: 310 nM
K562/A02 [15]
  IC50: 1980 nM
K562 [16]
  IC50: 22800 nM
K562 [17]
  IC50: 1980 nM
K562/A02 [18]
  GI50: 1080 nM
HOS
  GI50: 36600 nM
LoVo
  IC50: 1710 nM
MCF7 [19]
  IC50: 1710 nM
HeLa [20]
  IC50: 1710 nM
KB [21]
  IC50: 1710 nM
[22]
  IC50: 1710 nM
K562/Adr
  IC50: 413 nM
BGC-823 [23]
  IC50: 2880 nM
KB [24]
  IC50: 1740 nM
KB [25]
  IC50: 2270 nM
[26]
  C0: 16.8 µM
[27]
  AUC: 3180 ng·h/mL
[28]
  AUC: 933 ng·h/mL
HCT-116 [29]
  IC50: 4900 nM
A549 [30]
  IC50: 4900 nM

## COc1ccc2c(c1)c(CC(=O)NCCCCNC(=O)CCC(=O)O[C@H]1c3cc4c(cc3[C@@H](c3cc(OC)c(OC)c(OC)c3)[C@H]3C(=O)OC[C@@H]31)OCO4)c(C)n2C(=O)c1ccc(Cl)cc1
[31]
  IC50: 90 nM
[32]
  IC50: 90 nM
[33]
  IC50: 90 nM
[34]
  IC50: 90 nM
RKO
  IC50: < 30 nM
HCT-116 [35]
  IC50: < 30 nM
MDA-MB-231
  IC50: < 30 nM
[36]
  IC50: < 30 nM
IMR-5
  IC50: < 30 nM
NCI-H292
  IC50: < 30 nM
RAW264.7
  IC50: < 30 nM
[37]
  inhibition in vivo at 2 mg/kg: 50%

## COc1cc([C@@H]2c3cc4c(cc3[C@@H](OC(=O)CCCC[C@@H]3SC[C@@H]5NC(=O)N[C@@H]53)[C@H]3COC(=O)[C@H]23)OCO4)cc(OC)c1O
A549 [7]
  IC50: 130 nM
MCF7 [8]
  IC50: 130 nM
SW480
  IC50: 130 nM
SMMC-7721
  IC50: 130 nM
HL-60
  IC50: 130 nM
CCRF S-180
  Activity: 37.7%

## COc1cc(/C=C/c2ccc(OCC(=O)O[C@H]3c4cc5c(cc4[C@@H](c4cc(OC)c(OC)c(OC)c4)[C@H]4C(=O)OC[C@@H]43)OCO5)cc2)cc(OC)c1
[38]
  IC50: 347 nM
[39]
  IC50: 81 nM
[40]
  Ratio IC50: 3.6
[41]
  Ratio IC50: 34.2

## COc1cc([C@@H]2c3cc4c(cc3[C@@H](n3ccnc3)[C@H]3COC(=O)[C@H]23)OCO4)cc(OC)c1OC
HeLa [42]
  Ratio IC50: 5.8
A549 [43]
  Ratio IC50: 5.8
MCF7 [44]
  Ratio IC50: 5.8
HepG2 [45]
  Ratio IC50: 5.8
SK-OV-3 [46]
  Ratio IC50: 5.8
BGC-823 [47]
  Ratio IC50: 5.8
MGC-803 [48]
  Ratio IC50: 5.8
K562 [49]
  Ratio IC50: 5.8
K562/A02 [50]
  Ratio IC50: 5.8
